These results are taken from article PMC13233820, “Recruitment of Mre11 to recombination sites during meiosis” (Nature Communications, 2026).

One experiment deals with Mre11 condensates. The class given is biochemical, Saccharomyces cerevisiae. The following applies: 5% 1,6-hexanediol, ten-minute treatment. How it is done:
Experiments were performed without PEG. b, d Effect of DNase I, in the absence of PEG, on (b) Mre11 (n = 9 (no treatment) and 11 (DNase I)) and (d) MRX (n = 9 (no treatment) and 11 (DNase I)) condensates. Condensates were pre-assembled for 20 min with 5.7 nM pUC19 prior to challenge. Quantification represents total foci intensity (green) in a field of view and total number of foci per 1000 µm^2 (magenta). Foci intensity is normalized to the mean intensity of samples with DNA for (a, c) and untreated samples for (b, d). Error bars represent mean ± SD from the indicated (n) fields of view. e, f Effect of the presence of 5% PEG-3350 on (e) Mre11 (n = 12) and (f) MRX (n = 11) condensate formation. Quantification represents total foci intensity (green) in a field of view (normalized to the mean of + PEG images) and total number of foci per 1000 µm^2 (magenta). Error bars represent mean ± SD from the indicated (n) fields of view. g–j Effect of challenge with 5% 1,6-hexanediol and 0.5 M NaCl on (g, h) Mre11 and (i, j) MRX condensates. […] In the control reaction, an equivalent volume (1/20) of water was added instead of hexanediol. […]
(§1) Proteins were diluted to a 10 × stock of their appropriate working concentrations in their respective storage buffers. […] Images were analyzed with ImageJ using a custom-made script. […] Data were analyzed using Graphpad Prism 10.4.0.

Another experiment deals with MRX condensates. The class given is biochemical, Saccharomyces cerevisiae. The note with it: 5% 1,6-hexanediol, ten-minute treatment. On the procedure: Experiments were performed without PEG. b, d Effect of DNase I, in the absence of PEG, on (b) Mre11 (n = 9 (no treatment) and 11 (DNase I)) and (d) MRX (n = 9 (no treatment) and 11 (DNase I)) condensates. Condensates were pre-assembled for 20 min with 5.7 nM pUC19 prior to challenge. Quantification represents total foci intensity (green) in a field of view and total number of foci per 1000 µm^2 (magenta). Foci intensity is normalized to the mean intensity of samples with DNA for (a, c) and untreated samples for (b, d). Error bars represent mean ± SD from the indicated (n) fields of view. e, f Effect of the presence of 5% PEG-3350 on (e) Mre11 (n = 12) and (f) MRX (n = 11) condensate formation. Quantification represents total foci intensity (green) in a field of view (normalized to the mean of + PEG images) and total number of foci per 1000 µm^2 (magenta). Error bars represent mean ± SD from the indicated (n) fields of view. g–j Effect of challenge with 5% 1,6-hexanediol and 0.5 M NaCl on (g, h) Mre11 and (i, j) MRX condensates. Condensates were assembled for 20 min prior to challenge and incubated for 15 min and 10 min, respectively, after challenge. […]
as §1

Experiment [1] concerns MMS-induced Mre11^myc foci in vegetatively growing yeast. Put plainly: Immunofluorescence of MMS-induced Mre11myc foci, vegetative yeast nuclear spreads. The class given is cell-based, Saccharomyces cerevisiae. How it is done:
(§2) Following standard protocols, strains were patched on YPG plates, mated and streaked on YPD plates, and selected diploid colonies grown in liquid YPD at 30 °C, 250 rpm, overnight. For meiotic synchronization, diploid cultures grown overnight in YPD were transferred to YPA (1% yeast extract, 2% peptone, 1% potassium acetate) at OD600 0.2 and grown for 12–14 h at 30 °C, 250 rpm. Once the cultures reached OD600 between 1.2–1.6, cells were washed once with prewarmed sterile water and immediately transferred to sporulation medium supplemented with amino acids (320 µL amino acid complementation media for 100 mL of sporulation media (SPM)) and were kept shaking at 30 °C, 250 rpm during the entire meiotic time-course. For MMS and CPT (Sigma) sensitivity assays, serial dilutions of overnight cultures were spotted on freshly prepared YPD-MMS or YPD-CPT plates containing the indicated percentage of MMS or CPT, respectively. Plates were grown for two days at 30 °C. For immunofluorescence of vegetatively growing cells, overnight cultures were refreshed by diluting to OD600 0.2 and grown for 3-4 hours to reach OD600 1.2–1.4 before subjecting to MMS or MMS followed by 5% 1,6-hexanediol treatment. For 5% 1,6-hexanediol treatment, cells were first converted to spheroplasts and then treated with 5% 1,6-hexanediol for 4-5 min. Spheroplasts were then immediately washed, lysed, and fixed using the protocol described below.
Meiotic cultures were harvested 4 h after transfer to SPM, washed with sterile cold water, and resuspended in 1 M sorbitol, 1 × PBS (pH 7), 10 mM DTT, 0.5 mg/ml zymolyase 20 T, and incubated for 30 mins at 30 °C with gentle shaking. […]
(§3) Slides were blocked with 90% FBS, 1 × PBS for 1 h at room temperature in a humid chamber and then incubated with primary antibody (mouse mAb anti-myc, 1:200 (2276S, Cell Signaling Technology), rabbit anti-phospho H2A-S129, 1:200 (ab15083, abcam)) diluted in 3% BSA, 1 × PBS in a humid chamber for 2 h at 37 °C or overnight at 4 °C. […] Images were captured on a Zeiss Axio Observer with a 100 ×/1.4 NA oil immersion objective and were analyzed in ImageJ.

The next experiment relates to meiotic Mre11^myc foci. Put plainly: Immunofluorescence of meiotic Mre11myc foci, yeast nuclear spreads. The class given is cell-based, Saccharomyces cerevisiae. The note with it: brief exposure to 1,6-hexanediol, prophase I spreads. How it is done:
as §2, with “Plates were grown for two days at 30 °C. For immunofluorescence of vegetatively growing cells, overnight cultures were refreshed by diluting to OD600 0.2 and grown for 3-4 hours to reach OD600 1.2–1.4 before subjecting to MMS or MMS followed by 5% 1,6-hexanediol treatment. For 5% 1,6-hexanediol treatment, cells were first converted to spheroplasts and then treated with 5% 1,6-hexanediol for 4-5 min. Spheroplasts were then immediately washed, lysed, and fixed using the protocol described below.” left out
as §3

The next experiment relates to Mer2 condensates. Kind of experiment: Colocalization of fluorescently-labeled Mer2 and Mre11 condensates. The class given is binding, Saccharomyces cerevisiae. The following applies: 800 nM mScarlet-Mre11-C49 with 200 nM eGFP-Mer2, 30 min. On the procedure:
Fig. 4 Mer2 recruits Mre11 during meiosis. a Effect of 1,6-hexanediol treatment on meiotic Mre11^myc foci visualized by immunofluorescence analysis of yeast nuclear spreads 4 hours after transfer to SPM. […] At least 22 tetrads were dissected for each strain (n ≥ 88 spores). e Quantification of sub-population of cells showing discrete Mre11 foci and aggregated Mre11 foci in indicated strains. Images used for analysis were from the same experiments in (b) and (d). f Colocalization of fluorescently-labeled Mer2 with wild-type or truncated Mre11. […] The number of images analyzed for each sample were WT (n = 11), Mre11^Δ10-270 (n = 13), Mre11^Δ290-472 (n = 15), Mre11^ΔIDR (n = 10), Mre11^ΔC49 (n = 13). Error bars represent mean ± SD from the indicated (n) fields of view. p-values compared to Mre11-WT are: Mre11^Δ10-270 (0.006), Mre11^Δ290-472 (0.0003), Mre11^ΔIDR (<0.0001), Mre11^ΔC49 (<0.0001). g Colocalization of fluorescently-labeled Mre11-C49 and Mer2. Condensates were assembled by mixing 800 nM of ^mScarletMre11-C49 and 200 nM of ^eGFPMer2 for 30 min prior to imaging. […]
Proteins were diluted to a 10 × stock of their appropriate working concentrations in their respective storage buffers. […] Images were analyzed with ImageJ using a custom-made script. […] Masked foci were counted, and the intensity inside the focus mask was integrated. […] Data were analyzed using Graphpad Prism 10.4.0.

Another experiment deals with HisSUMO-Mer2 (wild type). Kind of experiment: Co-expression pull-down assay (NiNTA, anti-MBP immunoblot). The class given is binding, Saccharomyces cerevisiae. The following applies: co-expressed in E. coli. How it is done: Wild-type and mutant MBP-tagged Mre11-C49 and HisSUMO-tagged Mer2 were co-expressed in 50 mL of E. coli BL21 cultures and purified by affinity chromatography on Ni-NTA resin following a procedure similar to that described above. Briefly, cells were lysed by sonication and centrifuged at maximum speed for 30 mins at 4 °C on a table-top centrifuge. A small fraction of the supernatant was collected as ‘Input’ and the remainder was incubated with 120 µL Ni-NTA resin, pre-equilibrated with wash buffer (25 mM HEPES pH 7.5, 20 mM imidazole, 0.1 mM DTT, 0.1 mM PMSF, 10% glycerol), for 1 hour on a rotating wheel at 4 °C. The resin was washed twice with 2 ml in batch and five times with 2 ml on column before eluting with 250 µL of 500 mM imidazole in wash buffer. Input and elution fractions were separated by SDS-PAGE followed by immunoblotting with primary murine anti-MBP monoclonal antibody at 1:10,000 dilution (E8032S, NEB) and secondary goat anti-mouse IgG-HRP conjugated at 1:10,000 dilution (AP308P, Chemicon).
On the technique in general: In western blotting, separated proteins are transferred to a membrane and probed.

The test system of the next experiment is Mer2. Put plainly: Yeast two-hybrid. The class given is binding, Saccharomyces cerevisiae. The following applies: SC-Leu-Ura-His + 25 mM 3-AT. How it is done: Bait and prey plasmids were co-transformed into yWL365 using the standard ‘LiAc’-based transformation and plated on SC-Leu-Ura selective media. At least four independent transformants were tested for Mer2-Mre11 interaction by spotting a dilution series on SC-Leu- Ura-His + 25 mM 3-AT (3-amino-1,2,4-triazole) and growing for 4-5 days at 30 °C.

For another experiment, the system named is Mer2 coiled-coil. Kind of experiment: ITC Mre11-C49 / Mer2 coiled-coil. The class given is binding, Saccharomyces cerevisiae. The following applies: Mre11-C49 titrated into Mer2 coiled-coil; peer review file.

In the case of `OCCCCCCO` [1,6-hexanediol], the “Effect on Mre11 foci intensity (in words)” value in the experiment with Mre11 condensates is “strong reduction in foci intensity”. Also, the “Effect on MRX foci intensity (in words)” value in the experiment on MRX condensates was “strong reduction in foci intensity”. Moreover, the “Effect on MMS-induced Mre11 foci (in words)” value in experiment [1] (5% 1,6-hexanediol, 4-5 min) is recorded as “readily dissolved MMS-induced foci”. Besides, the Percentage of aggregates in experiment [1] (MMS + 5% 1,6-hexanediol 4-5 min) came to 100. The “Effect on meiotic Mre11 foci (in words)” value with meiotic Mre11^myc foci was “disassembles these foci”.
On to “SYGLLNGRKTKTKTRSAASTKTASRRGKGRASRTPKTDILGSLLAKKRK [Mre11-C49, Mre11 C-terminal residues 644–692]”, for which the “Localization around Mer2 condensates (in words)” value in the experiment with Mer2 condensates was “forms a halo-like structure around Mer2 condensates”. In addition, the “Interaction with Mer2 in pulldown (in words)” value with HisSUMO-Mer2 (wild type) is reported as “directly binds Mer2”. For the same compound, the “Yeast two-hybrid interaction with Mer2 (in words)” value with Mer2 was “not sufficient for Mer2 binding”. Further, the ITC result in the experiment with Mer2 coiled-coil is listed as “inconclusive”.
